# Laboratory results published in US20260250318A1, “COMPOSITIONS AND METHODS FOR CROSSING THE BLOOD BRAIN BARRIER” (VOYAGER THERAPEUTICS, INC., priority 2022, published 2026).
# Tested on: brain, spinal cord, and DRG of the NHPs
# Experiment: NGS fold enrichment of synthetic library (passage 3) in NHPs, first cross-species screen
# Assay type: in vivo, cynomolgus macaques (Macaca fascicularis)
# Conditions: synthetic library passage 3, intravenous, RNA NGS, brain of NHPs, relative to wild-type AAV9
# Summary of the method: (§1)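 Fold enrichment versus wild-type AAV9 was derived by NGS of RT-PCR-amplified RNA from nervous tissue, collected e.g. 28 days after IV dosing […]. The library (passage 3) was given to two NHPs aged 2-4 years and to 6-8-week BALB/c and C57Bl/6 mice (n=3 each).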
row,Sequence,Fold enrichment over AAV9 in the brain of NHPs [fold]
1,GSGQNQQPNSGSMT,1.064
2,GSSGIPVSHQNQQT,1.690
3,GSSGHRESGQNQQT,1.048
4,GSGQNQQQIGGNST,1.741
5,GIMARDSSGQNQQT,1.972
6,GSGQGPQERGNQQT,1.702
7,GSGQEHRSLANQQT,1.046
8,GRGQIYSTGGNQQT,2.210
9,GSGQNHGVLSNQQT,2.254
10,GSGVHGVSSQNQQT,1.781
11,GSVHMQNAGQNQQT,1.034
12,GSGQNTGQHMMQQT,1.090
13,GGGPMAGSGQNQQT,1.735
14,GSIAHVGTGQNQQT,1.696
15,GRGGIPQSGQNQQT,2.352
16,GSGQNQQKQNHGNT,1.695
17,GSRNGHAVGQNQQT,1.574
18,GHPSPHVSGQNQQT,1.713
19,GSSSPGASGQNQQT,1.717

# Same assay, conditions: synthetic library passage 3, intravenous, RNA NGS, spinal cord of NHPs, relative to wild-type AAV9
row,Sequence,Fold enrichment over AAV9 in the spinal cord of NHPs [fold]
1,GSGQNQQPNSGSMT,0.925
2,GSSGIPVSHQNQQT,3.384
3,GSSGHRESGQNQQT,4.398
4,GSGQNQQQIGGNST,6.169
5,GIMARDSSGQNQQT,3.486
6,GSGQGPQERGNQQT,1.269
7,GSGQEHRSLANQQT,0.000
8,GRGQIYSTGGNQQT,11.629
9,GSGQNHGVLSNQQT,1.603
10,GSGVHGVSSQNQQT,4.519
11,GSVHMQNAGQNQQT,3.608
12,GSGQNTGQHMMQQT,1.058
13,GGGPMAGSGQNQQT,2.815
14,GSIAHVGTGQNQQT,1.264
15,GRGGIPQSGQNQQT,8.683
16,GSGQNQQKQNHGNT,5.349
17,GSRNGHAVGQNQQT,2.688
18,GHPSPHVSGQNQQT,0.416
19,GSSSPGASGQNQQT,1.244

# Same assay, conditions: synthetic library passage 3, intravenous, RNA from brain of NHPs, NGS, relative to wild-type AAV9
row,Sequence,Fold enrichment over AAV9 in the brain of NHPs [fold]
1,GSFSMGYGGQNQQT,1.393
2,GSGQNQRAVLNDQT,1.242
3,GSGSKQNALQNQQT,1.216
4,GSGFPKSTEQNQQT,1.376
5,GSSHTLALGQNKQT,1.362
6,GCTTRLNSGQNQQT,1.276
7,GSGDDSRVGQNQQT,1.172

# Same assay, conditions: synthetic library passage 3, intravenous, RNA from spinal cord of NHPs, NGS, relative to wild-type AAV9
row,Sequence,Fold enrichment over AAV9 in the spinal cord of NHPs [fold]
1,GSFSMGYGGQNQQT,18.476
2,GSGQNQRAVLNDQT,3.023
3,GSGSKQNALQNQQT,2.010
4,GSGFPKSTEQNQQT,2.058
5,GSSHTLALGQNKQT,2.160
6,GCTTRLNSGQNQQT,0.000
7,GSGDDSRVGQNQQT,0.191

# Tested on: brain
# Experiment: NGS fold enrichment of synthetic library (passage 3) in BALB/c mice, first cross-species screen
# Assay type: in vivo
# Conditions: synthetic library passage 3, intravenous, RNA NGS, brain of BALB/c mice, relative to wild-type AAV9
# Summary of the method: as §1
row,Sequence,Fold enrichment over AAV9 in the brain of Mice (BALB/c) [fold]
1,GSGQNQQPNSGSMT,0.339
2,GSSGIPVSHQNQQT,0.333
3,GSSGHRESGQNQQT,0.691
4,GSGQNQQQIGGNST,0.576
5,GIMARDSSGQNQQT,0.904
6,GSGQGPQERGNQQT,0.313
7,GSGQEHRSLANQQT,0.344
8,GRGQIYSTGGNQQT,0.743
9,GSGQNHGVLSNQQT,0.701
10,GSGVHGVSSQNQQT,0.951
11,GSVHMQNAGQNQQT,0.625
12,GSGQNTGQHMMQQT,0.917
13,GGGPMAGSGQNQQT,0.372
14,GSIAHVGTGQNQQT,1.045
15,GRGGIPQSGQNQQT,1.181
16,GSGQNQQKQNHGNT,1.340
17,GSRNGHAVGQNQQT,0.939
18,GHPSPHVSGQNQQT,0.488
19,GSSSPGASGQNQQT,0.660

# Same assay, conditions: synthetic library passage 3, intravenous, RNA from brain of BALB/c mice, NGS, relative to wild-type AAV9
row,Sequence,Fold enrichment over AAV9 in the brain of Mice (BALB/c) [fold]
1,GSFSMGYGGQNQQT,1.030
2,GSGQNQRAVLNDQT,0.259
3,GSGSKQNALQNQQT,0.594
4,GSGFPKSTEQNQQT,0.194
5,GSSHTLALGQNKQT,0.643
6,GCTTRLNSGQNQQT,0.618
7,GSGDDSRVGQNQQT,0.156

# Tested on: brain
# Experiment: NGS fold enrichment of synthetic library (passage 3) in C57Bl/6 mice, first cross-species screen
# Assay type: in vivo
# Conditions: synthetic library passage 3, intravenous, RNA NGS, brain of C57Bl/6 mice, relative to wild-type AAV9
# Summary of the method: as §1
row,Sequence,Fold enrichment over AAV9 in the brain of Mice (C57Bl/6) [fold]
1,GSGQNQQPNSGSMT,0.588
2,GSSGIPVSHQNQQT,0.820
3,GSSGHRESGQNQQT,0.641
4,GSGQNQQQIGGNST,0.877
5,GIMARDSSGQNQQT,1.320
6,GSGQGPQERGNQQT,0.846
7,GSGQEHRSLANQQT,0.507
8,GRGQIYSTGGNQQT,1.329
9,GSGQNHGVLSNQQT,1.113
10,GSGVHGVSSQNQQT,1.504
11,GSVHMQNAGQNQQT,1.004
12,GSGQNTGQHMMQQT,1.147
13,GGGPMAGSGQNQQT,1.049
14,GSIAHVGTGQNQQT,0.837
15,GRGGIPQSGQNQQT,1.639
16,GSGQNQQKQNHGNT,1.538
17,GSRNGHAVGQNQQT,0.434
18,GHPSPHVSGQNQQT,0.551
19,GSSSPGASGQNQQT,1.378

# Same assay, conditions: synthetic library passage 3, intravenous, RNA from brain of C57Bl/6 mice, NGS, relative to wild-type AAV9
row,Sequence,Fold enrichment over AAV9 in the brain of Mice (C57Bl/6) [fold]
1,GSFSMGYGGQNQQT,1.908
2,GSGQNQRAVLNDQT,0.556
3,GSGSKQNALQNQQT,0.941
4,GSGFPKSTEQNQQT,0.610
5,GSSHTLALGQNKQT,0.838
6,GCTTRLNSGQNQQT,0.184
7,GSGDDSRVGQNQQT,0.466
